# In PubChem BioAssay (NCI):
#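 GI50: concentration for 50% inhibition of growth. Definition used: TGI = concentration required for complete inhibition of growth.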
# Tests used:
# Experiment in all cases: NCI-60 cell line screen, 384-well format
# NCI-H322M lung = tested on: NCI-H322M lung
# SK-MEL-28 melanoma = tested on: SK-MEL-28 melanoma
# SF-268 CNS = tested on: SF-268 CNS
# NCI-H226 lung = tested on: NCI-H226 lung
# COLO 205 colon = tested on: COLO 205 colon
# HCC-2998 colon = tested on: HCC-2998 colon
# MCF7 breast = tested on: MCF7 breast
# LOX IMVI melanoma = tested on: LOX IMVI melanoma
# 786-0 renal = tested on: 786-0 renal
# SW-620 colon = tested on: SW-620 colon
# HCT-15 colon = tested on: HCT-15 colon
# MDA-MB-468 breast = tested on: MDA-MB-468 breast
# UACC-62 melanoma = tested on: UACC-62 melanoma
# HOP-62 NSCLC = tested on: HOP-62 NSCLC
# MOLT-4 leukemia = tested on: MOLT-4 leukemia
# MALME-3M melanoma = tested on: MALME-3M melanoma
# CCRF-CEM leukemia = tested on: CCRF-CEM leukemia
# SN12C renal = tested on: SN12C renal
# UACC-257 melanoma = tested on: UACC-257 melanoma
# HL-60(TB) leukemia = tested on: HL-60(TB) leukemia
# U251 glioblastoma = tested on: U251 glioblastoma
# IGROV1 ovarian = tested on: IGROV1 ovarian
# A549 NSCLC = tested on: A549 NSCLC
# SR leukemia = tested on: SR leukemia
# MDA-MB-435 melanoma = tested on: MDA-MB-435 melanoma
# ACHN renal = tested on: ACHN renal
# SF-539 CNS = tested on: SF-539 CNS
# EKVX NSCLC = tested on: EKVX NSCLC
# M14 melanoma = tested on: M14 melanoma
# BT-549 breast = tested on: BT-549 breast
# NCI/ADR-RES ovarian = tested on: NCI/ADR-RES ovarian
# SK-MEL-5 melanoma = tested on: SK-MEL-5 melanoma
# A498 renal = tested on: A498 renal
# K-562 leukemia = tested on: K-562 leukemia
# NCI-H460 NSCLC = tested on: NCI-H460 NSCLC
# SK-OV-3 ovarian = tested on: SK-OV-3 ovarian
# RXF 393 renal = tested on: RXF 393 renal
# SNB-19 CNS = tested on: SNB-19 CNS
# OVCAR-3 ovarian = tested on: OVCAR-3 ovarian
# MDA-MB-231 breast = tested on: MDA-MB-231 breast
# HS 578T breast = tested on: HS 578T breast
# NCI-H23 lung = tested on: NCI-H23 lung
# SNB-75 CNS = tested on: SNB-75 CNS
# HT29 colon = tested on: HT29 colon
# HCT-116 colon = tested on: HCT-116 colon
# UO-31 renal = tested on: UO-31 renal
# TK-10 renal = tested on: TK-10 renal
structure (smiles),measurement,setting,value
C[C@@H](Oc1cc(NS(=O)(=O)N2CCC2)nc(SCc2cccc(F)c2F)n1)[C@@H](O)CO,GI50,NCI-H322M lung,> 100 µM
same,TGI,NCI-H322M lung,> 100 µM
same,GI50,SK-MEL-28 melanoma,> 100 µM
same,TGI,SK-MEL-28 melanoma,> 100 µM
same,GI50,SF-268 CNS,> 100 µM
same,TGI,SF-268 CNS,> 100 µM
same,GI50,NCI-H226 lung,> 89.3 µM
same,TGI,NCI-H226 lung,> 100 µM
same,GI50,COLO 205 colon,> 89.8 µM
same,TGI,COLO 205 colon,> 100 µM
same,GI50,HCC-2998 colon,> 77.4 µM
same,TGI,HCC-2998 colon,> 100 µM
same,GI50,MCF7 breast,> 52.1 µM
same,TGI,MCF7 breast,> 100 µM
same,GI50,LOX IMVI melanoma,42.1 µM
same,TGI,LOX IMVI melanoma,> 100 µM
same,GI50,786-0 renal,> 100 µM
same,TGI,786-0 renal,> 100 µM
same,GI50,SW-620 colon,> 100 µM
same,TGI,SW-620 colon,> 100 µM
same,GI50,HCT-15 colon,> 100 µM
same,TGI,HCT-15 colon,> 100 µM
same,GI50,MDA-MB-468 breast,> 78.2 µM
same,TGI,MDA-MB-468 breast,> 100 µM
same,GI50,UACC-62 melanoma,> 57.2 µM
same,TGI,UACC-62 melanoma,> 100 µM
same,GI50,HOP-62 NSCLC,> 100 µM
same,TGI,HOP-62 NSCLC,> 100 µM
same,GI50,MOLT-4 leukemia,> 61.8 µM
same,TGI,MOLT-4 leukemia,> 100 µM
same,GI50,MALME-3M melanoma,> 82.1 µM
same,TGI,MALME-3M melanoma,> 100 µM
same,GI50,CCRF-CEM leukemia,> 63.3 µM
same,TGI,CCRF-CEM leukemia,> 100 µM
same,GI50,SN12C renal,> 100 µM
same,TGI,SN12C renal,> 100 µM
same,GI50,UACC-257 melanoma,> 87.1 µM
same,TGI,UACC-257 melanoma,> 100 µM
same,GI50,HL-60(TB) leukemia,> 36 µM
same,TGI,HL-60(TB) leukemia,> 51.2 µM
same,GI50,U251 glioblastoma,> 100 µM
same,TGI,U251 glioblastoma,> 100 µM
same,GI50,IGROV1 ovarian,> 100 µM
same,TGI,IGROV1 ovarian,> 100 µM
same,GI50,A549 NSCLC,> 100 µM
same,TGI,A549 NSCLC,> 100 µM
same,GI50,SR leukemia,> 100 µM
same,TGI,SR leukemia,> 100 µM
same,GI50,MDA-MB-435 melanoma,> 100 µM
same,TGI,MDA-MB-435 melanoma,> 100 µM
same,GI50,ACHN renal,> 100 µM
same,TGI,ACHN renal,> 100 µM
same,GI50,SF-539 CNS,> 100 µM
same,TGI,SF-539 CNS,> 100 µM
same,GI50,EKVX NSCLC,> 100 µM
same,TGI,EKVX NSCLC,> 100 µM
same,GI50,M14 melanoma,> 95.7 µM
same,TGI,M14 melanoma,> 100 µM
same,GI50,BT-549 breast,> 71.9 µM
same,TGI,BT-549 breast,> 100 µM
same,GI50,NCI/ADR-RES ovarian,> 100 µM
same,TGI,NCI/ADR-RES ovarian,> 100 µM
same,GI50,SK-MEL-5 melanoma,> 59.4 µM
same,TGI,SK-MEL-5 melanoma,> 100 µM
same,GI50,A498 renal,> 79 µM
same,TGI,A498 renal,> 100 µM
same,GI50,K-562 leukemia,> 68.3 µM
same,TGI,K-562 leukemia,> 100 µM
same,GI50,NCI-H460 NSCLC,> 100 µM
same,TGI,NCI-H460 NSCLC,> 100 µM
same,GI50,SK-OV-3 ovarian,> 83.6 µM
same,TGI,SK-OV-3 ovarian,> 100 µM
same,GI50,RXF 393 renal,> 81.5 µM
same,TGI,RXF 393 renal,> 100 µM
same,GI50,SNB-19 CNS,> 100 µM
same,TGI,SNB-19 CNS,> 100 µM
same,GI50,OVCAR-3 ovarian,> 73.9 µM
same,TGI,OVCAR-3 ovarian,> 100 µM
same,GI50,MDA-MB-231 breast,> 75.9 µM
same,TGI,MDA-MB-231 breast,> 100 µM
same,GI50,HS 578T breast,57.7 µM
same,TGI,HS 578T breast,> 100 µM
same,GI50,NCI-H23 lung,99.2 µM
same,TGI,NCI-H23 lung,> 100 µM
same,GI50,SNB-75 CNS,> 100 µM
same,TGI,SNB-75 CNS,> 100 µM
same,GI50,HT29 colon,> 100 µM
same,TGI,HT29 colon,> 100 µM
same,GI50,HCT-116 colon,> 100 µM
same,TGI,HCT-116 colon,> 100 µM
same,GI50,UO-31 renal,17.9 µM
same,TGI,UO-31 renal,34.3 µM
same,GI50,TK-10 renal,> 66 µM
same,TGI,TK-10 renal,> 100 µM
COc1cc(C)[nH]c(=O)c1CN1CCc2c(Cl)cc([C@H](OC)C3COC3)c(Cl)c2C1=O,GI50,NCI-H322M lung,> 100 µM
same,TGI,NCI-H322M lung,> 100 µM
same,GI50,SK-MEL-28 melanoma,> 100 µM
same,TGI,SK-MEL-28 melanoma,> 100 µM
same,GI50,SF-268 CNS,> 100 µM
same,TGI,SF-268 CNS,> 100 µM
same,GI50,NCI-H226 lung,> 100 µM
same,TGI,NCI-H226 lung,> 100 µM
same,GI50,COLO 205 colon,> 100 µM
same,TGI,COLO 205 colon,> 100 µM
same,GI50,HCC-2998 colon,> 100 µM
same,TGI,HCC-2998 colon,> 100 µM
same,GI50,MCF7 breast,> 100 µM
same,TGI,MCF7 breast,> 100 µM
same,GI50,LOX IMVI melanoma,> 100 µM
same,TGI,LOX IMVI melanoma,> 100 µM
same,GI50,786-0 renal,> 100 µM
same,TGI,786-0 renal,> 100 µM
same,GI50,SW-620 colon,> 100 µM
same,TGI,SW-620 colon,> 100 µM
same,GI50,HCT-15 colon,> 100 µM
same,TGI,HCT-15 colon,> 100 µM
same,GI50,MDA-MB-468 breast,> 100 µM
same,TGI,MDA-MB-468 breast,> 100 µM
same,GI50,UACC-62 melanoma,> 100 µM
same,TGI,UACC-62 melanoma,> 100 µM
same,GI50,HOP-62 NSCLC,> 100 µM
same,TGI,HOP-62 NSCLC,> 100 µM
same,GI50,MOLT-4 leukemia,> 100 µM
same,TGI,MOLT-4 leukemia,> 100 µM
same,GI50,MALME-3M melanoma,> 100 µM
same,TGI,MALME-3M melanoma,> 100 µM
same,GI50,CCRF-CEM leukemia,> 75.8 µM
same,TGI,CCRF-CEM leukemia,> 100 µM
same,GI50,SN12C renal,> 100 µM
same,TGI,SN12C renal,> 100 µM
same,GI50,UACC-257 melanoma,> 100 µM
same,TGI,UACC-257 melanoma,> 100 µM
same,GI50,HL-60(TB) leukemia,> 78.5 µM
same,TGI,HL-60(TB) leukemia,> 100 µM
same,GI50,U251 glioblastoma,> 100 µM
same,TGI,U251 glioblastoma,> 100 µM
same,GI50,IGROV1 ovarian,> 100 µM
same,TGI,IGROV1 ovarian,> 100 µM
same,GI50,A549 NSCLC,> 100 µM
same,TGI,A549 NSCLC,> 100 µM
same,GI50,SR leukemia,> 100 µM
same,TGI,SR leukemia,> 100 µM
same,GI50,MDA-MB-435 melanoma,> 100 µM
same,TGI,MDA-MB-435 melanoma,> 100 µM
same,GI50,ACHN renal,> 100 µM
same,TGI,ACHN renal,> 100 µM
same,GI50,SF-539 CNS,> 100 µM
same,TGI,SF-539 CNS,> 100 µM
same,GI50,EKVX NSCLC,> 100 µM
same,TGI,EKVX NSCLC,> 100 µM
same,GI50,M14 melanoma,> 100 µM
same,TGI,M14 melanoma,> 100 µM
same,GI50,BT-549 breast,> 100 µM
same,TGI,BT-549 breast,> 100 µM
same,GI50,NCI/ADR-RES ovarian,> 100 µM
same,TGI,NCI/ADR-RES ovarian,> 100 µM
same,GI50,SK-MEL-5 melanoma,> 100 µM
same,TGI,SK-MEL-5 melanoma,> 100 µM
same,GI50,A498 renal,> 100 µM
same,TGI,A498 renal,> 100 µM
same,GI50,K-562 leukemia,> 100 µM
same,TGI,K-562 leukemia,> 100 µM
same,GI50,NCI-H460 NSCLC,> 100 µM
same,TGI,NCI-H460 NSCLC,> 100 µM
same,GI50,SK-OV-3 ovarian,> 100 µM
same,TGI,SK-OV-3 ovarian,> 100 µM
same,GI50,RXF 393 renal,> 100 µM
same,TGI,RXF 393 renal,> 100 µM
same,GI50,SNB-19 CNS,> 100 µM
same,TGI,SNB-19 CNS,> 100 µM
same,GI50,OVCAR-3 ovarian,> 100 µM
same,TGI,OVCAR-3 ovarian,> 100 µM
same,GI50,MDA-MB-231 breast,> 78.3 µM
same,TGI,MDA-MB-231 breast,> 100 µM
same,GI50,HS 578T breast,> 100 µM
same,TGI,HS 578T breast,> 100 µM
same,GI50,NCI-H23 lung,> 100 µM
same,TGI,NCI-H23 lung,> 100 µM
same,GI50,SNB-75 CNS,> 100 µM
same,TGI,SNB-75 CNS,> 100 µM
same,GI50,HT29 colon,> 100 µM
same,TGI,HT29 colon,> 100 µM
same,GI50,HCT-116 colon,> 100 µM
same,TGI,HCT-116 colon,> 100 µM
same,GI50,UO-31 renal,> 100 µM
same,TGI,UO-31 renal,> 100 µM
same,GI50,TK-10 renal,> 100 µM
same,TGI,TK-10 renal,> 100 µM
